Results from patent publication US10000507B2, “Furo- and thieno-pyridine carboxamide compounds useful as pim kinase inhibitors” (Incyte Corporation, priority 2013, dated 2018).

Columns and labels:
Assay type in all cases: biochemical
[1] = biological target: Pim-1 (Homo sapiens (Human), UniProt P11309); assay: Pim-1 kinase assay; settings: 1 mM ATP, biotin-labeled BAD peptide substrate; read-out: Pim1 IC50
How it was run: (§1)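 Biotin-BAD peptide ([…]) phosphorylated with 1 mM ATP by 2.5 pM Pim-1 or 1.25 pM Pim-3, 1 h at 25 °C in Tris pH 7.5, MgCl2, DTT buffer. EDTA stop with anti-phospho-BAD (Ser112) antibody and AlphaScreen streptavidin donor/Protein-A acceptor beads; signal read after 1 h dark incubation.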

[2] = biological target: Pim-3 (Homo sapiens (Human), UniProt Q86V86); assay: Pim-3 kinase assay; settings: 1 mM ATP, biotin-labeled BAD peptide substrate; read-out: Pim3 IC50
How it was run: as §1

[3] = biological target: Pim-2 (Homo sapiens (Human), UniProt Q9P1W9); assay: Pim-2 kinase assay; settings: 1 mM ATP, fluorescein-labeled CREBtide peptide substrate; read-out: Pim2 IC50
Sequence of Pim-2 (Q9P1W9 whole entry): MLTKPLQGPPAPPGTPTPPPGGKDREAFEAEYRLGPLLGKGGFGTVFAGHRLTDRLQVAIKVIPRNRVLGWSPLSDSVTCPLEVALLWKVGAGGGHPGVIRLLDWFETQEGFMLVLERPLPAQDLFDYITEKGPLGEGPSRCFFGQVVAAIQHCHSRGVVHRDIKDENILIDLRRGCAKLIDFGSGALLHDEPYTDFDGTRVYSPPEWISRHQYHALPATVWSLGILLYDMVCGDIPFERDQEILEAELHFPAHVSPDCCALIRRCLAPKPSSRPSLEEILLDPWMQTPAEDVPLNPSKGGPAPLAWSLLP
How it was run: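 Phosphorylated CREBtide was detected by terbium anti-pSer133 antibody TR-FRET after EDTA quench and 30 min at room temperature. Reactions ran 2 h at 25 °C with 1 mM ATP, 0.05 μM fluorescein-labelled substrate and 1 nM enzyme in pH 7.5 Tris buffer.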

Sequence of Pim-1 (P11309 whole entry): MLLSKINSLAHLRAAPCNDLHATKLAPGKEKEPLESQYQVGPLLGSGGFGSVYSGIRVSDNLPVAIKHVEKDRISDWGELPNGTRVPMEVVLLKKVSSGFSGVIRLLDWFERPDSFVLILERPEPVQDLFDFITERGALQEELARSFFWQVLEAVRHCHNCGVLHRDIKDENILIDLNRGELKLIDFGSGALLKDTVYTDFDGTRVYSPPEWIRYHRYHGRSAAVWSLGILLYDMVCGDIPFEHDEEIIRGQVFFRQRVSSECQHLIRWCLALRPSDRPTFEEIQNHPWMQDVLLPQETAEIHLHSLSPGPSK

SMILES: CC(C)c1cnc2c(C(=O)Nc3cnccc3N3C[C@@H](N)[C@H](O)[C@@H](C)C3)c(N)oc2c1 [Example 75, 2-Amino-N-{4-[(3R,4R,5S)-3-amino-4-hydroxy-5-methylpiperidin-1-yl]pyridin-3-yl}-6-isopropylfuro[3,2-b]pyridine-3-carboxamide]
- IC50 [1]: ≤ 10 nM
- IC50 [2]: ≤ 10 nM
- IC50 [3]: 10 to 100 nM

SMILES: Cc1cncc(NC(=O)c2c(N)oc3cccnc23)c1N1C[C@@H](N)[C@H](O)[C@@H](C)C1 [Example 76, 2-Amino-N-{5-methyl-4-[(3R,4R,5S)-3-amino-4-hydroxy-5-methylpiperidin-1-yl]pyridin-3-yl}-furo[3,2-b]pyridine-3-carboxamide]
- IC50 [1]: ≤ 10 nM
- IC50 [2]: ≤ 10 nM
- IC50 [3]: 100 to 1000 nM

SMILES: CCCc1cnc2c(C(=O)Nc3cncc(C)c3N3C[C@@H](N)[C@H](O)[C@@H](C)C3)c(N)oc2c1 [Example 77, 2-Amino-N-{5-methyl-4-[(3R,4R,5S)-3-amino-4-hydroxy-5-methylpiperidin-1-yl]pyridin-3-yl}-6-propylfuro[3,2-b]pyridine-3-carboxamide]
- IC50 [1]: ≤ 10 nM
- IC50 [2]: ≤ 10 nM
- IC50 [3]: ≤ 10 nM

SMILES: Cc1cncc(NC(=O)c2c(N)oc3cc(Cl)cnc23)c1N1C[C@@H](N)[C@H](O)[C@@H](C)C1 [Example 78, 2-Amino-N-{5-methyl-4-[(3R,4R,5S)-3-amino-4-hydroxy-5-methylpiperidin-1-yl]pyridin-3-yl}-6-chlorofuro[3,2-b]pyridine-3-carboxamide]
- IC50 [1]: ≤ 10 nM
- IC50 [2]: ≤ 10 nM
- IC50 [3]: 10 to 100 nM

SMILES: Cc1cncc(NC(=O)c2c(N)oc3cc(C(F)(F)F)cnc23)c1N1C[C@@H](N)[C@H](O)[C@@H](C)C1 [Example 79, 2-Amino-N-{5-methyl-4-[(3R,4R,5S)-3-amino-4-hydroxy-5-methylpiperidin-1-yl]pyridin-3-yl}-6-(trifluoromethyl)-furo[3,2-b]pyridine-3-carboxamide]
- IC50 [1]: ≤ 10 nM
- IC50 [2]: ≤ 10 nM
- IC50 [3]: 10 to 100 nM

SMILES: CCCc1cnc2c(C(=O)Nc3cnccc3N3CC[C@@H](F)[C@H](N)C3)c(N)oc2c1 [Example 80, 2-Amino-N-{4-[(3R,4R)-3-amino-4-fluoro-piperidin-1-yl]pyridin-3-yl}-6-propylfuro[3,2-b]pyridine-3-carboxamide]
- IC50 [1]: ≤ 10 nM
- IC50 [2]: ≤ 10 nM
- IC50 [3]: 100 to 1000 nM

SMILES: Nc1oc2c(Cl)ccnc2c1C(=O)Nc1cnccc1N1CCC[C@H](N)C1 [Example 81, 2-Amino-N-{4-[(3S)-3-aminopiperidin-1-yl]pyridin-3-yl}-7-chloro-furo[3,2-b]pyridine-3-carboxamide]
- IC50 [1]: ≤ 10 nM
- IC50 [2]: ≤ 10 nM
- IC50 [3]: ≤ 10 nM

SMILES: CCCc1cnc2c(C(=O)Nc3cnccc3N3C[C@@H](N)[C@H](O)[C@@H](C4CC4)C3)c(N)oc2c1 [Example 82, 2-Amino-N-{4-[(3R,4R,5S)-3-amino-5-cyclopropyl-4-hydroxypiperidin-1-yl]pyridin-3-yl}-6-propylfuro[3,2-b]pyridine-3-carboxamide]
- IC50 [1]: ≤ 10 nM
- IC50 [2]: ≤ 10 nM
- IC50 [3]: ≤ 10 nM

SMILES: C[C@H]1C[C@@H](c2ccncc2NC(=O)c2c(N)oc3cccnc23)C[C@@H](N)[C@]1(C)O [Example 83, 2-Amino-N-(4-((1R,3R,4R,5S)-3-amino-4-hydroxy-4,5-dimethylcyclohexyl)pyridin-3-yl)furo[3,2-b]pyridine-3-carboxamide]
- IC50 [1]: ≤ 10 nM
- IC50 [2]: ≤ 10 nM
- IC50 [3]: 100 to 1000 nM

SMILES: CCCc1cnc2c(C(=O)Nc3cnccc3[C@H]3C[C@@H](N)[C@](C)(O)[C@@H](C)C3)c(N)oc2c1 [Example 84, 2-Amino-N-(4-((1R,3R,4R,5S)-3-amino-4-hydroxy-4,5-dimethylcyclohexyl)pyridin-3-yl)-6-propylfuro[3,2-b]pyridine-3-carboxamide]
- IC50 [1]: ≤ 10 nM
- IC50 [2]: ≤ 10 nM
- IC50 [3]: 10 to 100 nM

SMILES: CCCc1cnc2c(C(=O)Nc3cnccc3N3C[C@@H](N)[C@](C)(O)[C@@H](C)C3)c(N)oc2c1 [Example 85, 2-Amino-N-{4-[(3R,4R,5S)-3-amino-4-hydroxy-4,5-dimethylpiperidin-1-yl]pyridin-3-yl}-6-propylfuro[3,2-b]pyridine-3-carboxamide]
- IC50 [1]: ≤ 10 nM
- IC50 [2]: ≤ 10 nM
- IC50 [3]: ≤ 10 nM

SMILES: CCCc1cnc2c(C(=O)Nc3cnccc3N3C[C@@H](N)[C@@](C)(O)[C@@H](C)C3)c(N)oc2c1 [Example 86, 2-Amino-N-{4-[(3R,4S,5S)-3-amino-4-hydroxy-4,5-dimethylpiperidin-1-yl]pyridin-3-yl}-6-propylfuro[3,2-b]pyridine-3-carboxamide]
- IC50 [1]: ≤ 10 nM
- IC50 [2]: ≤ 10 nM
- IC50 [3]: ≤ 10 nM

SMILES: Nc1sc2cccnc2c1C(=O)Nc1cnsc1N1CCC[C@H](N)C1 [Example 88, 2-Amino-N-{5-[(3S)-3-aminopiperidin-1-yl]isothiazol-4-yl}thieno[3,2-b]pyridine-3-carboxamide]
- IC50 [1]: ≤ 10 nM
- IC50 [2]: ≤ 10 nM
- IC50 [3]: 100 to 1000 nM

SMILES: CC(C)c1cnc2c(C(=O)Nc3cnccc3N3C[C@@H](N)[C@H](O)[C@@H](C4CC4)C3)c(N)oc2c1 [Example 89, 2-Amino-N-{4-[(3R,4R,5S)-3-amino-5-cyclopropyl-4-hydroxypiperidin-1-yl]pyridin-3-yl}-6-isopropylfuro[3,2-b]pyridine-3-carboxamide]
- IC50 [1]: ≤ 10 nM
- IC50 [2]: ≤ 10 nM
- IC50 [3]: ≤ 10 nM

SMILES: Cn1ncc(NC(=O)c2c(N)oc3cc(C4CCOCC4)cnc23)c1N1C[C@@H](N)C[C@@H](C(F)(F)F)C1 [Example 90, 2-Amino-N-{5-[(3S,5R)-3-amino-5-(trifluoromethyl)piperidin-1-yl]-1-methyl-1H-pyrazol-4-yl}-6-(tetrahydro-2H-pyran-4-yl)furo[3,2-b]pyridine-3-carboxamide]
- IC50 [1]: ≤ 10 nM
- IC50 [2]: ≤ 10 nM
- IC50 [3]: 10 to 100 nM

SMILES: Nc1oc2cc(C3CCOCC3)cnc2c1C(=O)Nc1cnsc1N1C[C@@H](N)C[C@@H](C(F)(F)F)C1 [Example 91, 2-Amino-N-{5-[(3S,5R)-3-amino-5-(trifluoromethyl)piperidin-1-yl]isothiazol-4-yl}-6-(tetrahydro-2H-pyran-4-yl)furo[3,2-b]pyridine-3-carboxamide]
- IC50 [1]: ≤ 10 nM
- IC50 [2]: ≤ 10 nM
- IC50 [3]: 10 to 100 nM

SMILES: Nc1oc2cc(C3CCOCC3)cnc2c1C(=O)Nc1cnccc1N1C[C@@H](N)C[C@@H](C(F)(F)F)C1 [Example 92, 2-Amino-N-{4-[(3S,5R)-3-amino-5-(trifluoromethyl)piperidin-1-yl]pyridin-3-yl}-6-(tetrahydro-2H-pyran-4-yl)furo[3,2-b]pyridine-3-carboxamide]
- IC50 [1]: ≤ 10 nM
- IC50 [2]: ≤ 10 nM
- IC50 [3]: ≤ 10 nM

SMILES: CN1CCC(c2cnc3c(C(=O)Nc4cnccc4N4C[C@@H](N)C[C@@H](C(F)(F)F)C4)c(N)oc3c2)CC1 [Example 93, 2-Amino-N-{4-[(3S,5R)-3-amino-5-(trifluoromethyl)piperidin-1-yl]pyridin-3-yl}-6-(1-methylpiperidin-4-yl)furo[3,2-b]pyridine-3-carboxamide]
- IC50 [1]: ≤ 10 nM
- IC50 [2]: ≤ 10 nM
- IC50 [3]: 10 to 100 nM

SMILES: CN1CCC(c2cnc3c(C(=O)Nc4cnn(C)c4N4C[C@@H](N)C[C@@H](C(F)(F)F)C4)c(N)oc3c2)CC1 [Example 94, 2-Amino-N-{5-[(3S,5R)-3-amino-5-(trifluoromethyl)piperidin-1-yl]-1-methyl-1H-pyrazol-4-yl}-6-(1-methylpiperidin-4-yl)furo[3,2-b]pyridine-3-carboxamide]
- IC50 [1]: ≤ 10 nM
- IC50 [2]: ≤ 10 nM
- IC50 [3]: 10 to 100 nM

SMILES: C[C@@H]1C[C@H](N)CN(c2ccncc2NC(=O)c2c(N)oc3cc(C4CCOCC4)cnc23)C1 [Example 95, 2-Amino-N-{4-[(3S,5R)-3-amino-5-methylpiperidin-1-yl]pyridin-3-yl}-6-(tetrahydro-2H-pyran-4-yl)furo[3,2-b]pyridine-3-carboxamide]
- IC50 [1]: ≤ 10 nM
- IC50 [2]: ≤ 10 nM
- IC50 [3]: 10 to 100 nM

SMILES: C[C@@H]1C[C@H](N)CN(c2sncc2NC(=O)c2c(N)oc3cc(C4CCOCC4)cnc23)C1 [Example 96]
- IC50 [1]: ≤ 10 nM
- IC50 [2]: ≤ 10 nM
- IC50 [3]: 10 to 100 nM

SMILES: C[C@@H]1C[C@H](N)CN(c2ccncc2NC(=O)c2c(N)oc3cc(C4CCC4)cnc23)C1 [Example 97, 2-Amino-N-{4-[(3S,5R)-3-amino-5-methylpiperidin-1-yl]pyridin-3-yl}-6-cyclobutylfuro[3,2-b]pyridine-3-carboxamide]
- IC50 [1]: ≤ 10 nM
- IC50 [2]: ≤ 10 nM
- IC50 [3]: ≤ 10 nM

SMILES: Nc1oc2cc(C3CCC3)cnc2c1C(=O)Nc1cnccc1N1C[C@@H](N)C[C@@H](C(F)(F)F)C1 [Example 98, 2-Amino-N-{4-[(3S,5R)-3-amino-5-(trifluoromethyl)piperidin-1-yl]pyridin-3-yl}-6-cyclobutylfuro[3,2-b]pyridine-3-carboxamide]
- IC50 [1]: ≤ 10 nM
- IC50 [2]: ≤ 10 nM
- IC50 [3]: ≤ 10 nM

SMILES: Nc1oc2cc(CN3CC(F)C3)cnc2c1C(=O)Nc1cnccc1N1C[C@@H](N)C[C@@H](C(F)(F)F)C1 [Example 99, 2-Amino-N-{4-[(3S,5R)-3-amino-5-(trifluoromethyl)piperidin-1-yl]pyridin-3-yl}-6-[(3-fluoroazetidin-1-yl)methyl]furo[3,2-b]pyridine-3-carboxamide]
- IC50 [1]: ≤ 10 nM
- IC50 [2]: ≤ 10 nM
- IC50 [3]: 10 to 100 nM
